What follows are molecules tested on Mycobacteria tuberculosis (M. tuberculosis H37Rv and M. tuberculosis Kurono) (assay: Antibacterial test (agar plate dilution method), minimum inhibitory concentration). Conditions: Mycobacterium tuberculosis, 7H11 agar medium, about 10^6 CFU/mL inoculum, incubation at 37° C., strains H37Rv and Kurono, read-out: minimum inhibitory concentration against Mycobacteria tuberculosis.
Assay type: cell-based
O=c1[nH]c2c(Cl)ccc(OC[C@]3(O)CCN(c4c(F)cc(Cl)cc4F)C[C@H]3O)c2s1 [Example 122] was tested, and the MIC was ≤ 3.13 µg/mL.
For CC(=O)Nc1cc(F)ccc1OC[C@]1(O)CCN(c2c(F)cc(Cl)cc2F)C[C@H]1O [Example 62], the MIC was ≤ 3.13 µg/mL.
O[C@@H]1CN(c2c(F)cc(Cl)cc2F)CC[C@@]1(O)COc1cccc2[nH]ncc12 [Example 28] was tested, and the MIC was ≤ 3.13 µg/mL.
For OC1CCc2c(OC[C@]3(O)CCN(c4c(F)cc(Cl)cc4F)C[C@H]3O)cccc21 (stereo partly drawn) [Example 24, (3R,4R)-1-(4-chloro-2,6-difluorophenyl)-4-[(1-hydroxy-2,3-dihydro-1H-inden-4-yl)oxymethyl]piperidine-3,4-diol], the MIC was ≤ 3.13 µg/mL.
In the case of O[C@@H]1CN(c2c(F)cc(Cl)cc2F)CC[C@@]1(O)COc1ccc(Cl)c2[nH]ccc12 [Example 113], the MIC is reported as ≤ 3.13 µg/mL.
For O[C@@H]1CN(c2c(F)cc(Cl)cc2F)CC[C@@]1(O)COc1cccc2[nH]cnc12 [Example 34], the MIC was ≤ 3.13 µg/mL.
In the case of O=C1CCc2c(OC[C@]3(O)CCN(c4ccc(Br)cc4F)C[C@H]3O)ccnc2N1 [Example 71], the MIC is reported as ≤ 3.13 µg/mL.
In the case of Cn1c(=O)c(=O)[nH]c2c(OC[C@]3(O)CCN(c4c(F)cc(Cl)cc4F)C[C@H]3O)ccc(F)c21 [Example 146], the MIC is reported as ≤ 3.13 µg/mL.
For O=C1Cc2c(OCC3(O)CCN(c4c(F)cc(Cl)cc4F)CC3)ccc(F)c2N1 [Example 145, 4-[[1-(4-chloro-2,6-difluorophenyl)-4-hydroxypiperidin-4-yl]methoxy]-7-fluoro-1,3-dihydroindol-2-one], the MIC was ≤ 3.13 µg/mL.
O=C1COc2c(OCC3(O)CCN(c4c(F)cc(Cl)cc4F)CC3)ccc(Cl)c2N1 [Example 80] was tested, and the MIC was ≤ 3.13 µg/mL.
O=C1CSc2c(cccc2OC[C@]2(O)CCN(c3ccc(Cl)cc3F)C[C@H]2O)N1 [Example 76] was tested, and the MIC was ≤ 3.13 µg/mL.
With Nc1nc2c(Cl)ccc(OC[C@]3(O)CCN(c4c(F)cc(Cl)cc4F)C[C@H]3O)c2s1 [Example 127, (3R,4R)-4-[(2-amino-4-chloro-1,3-benzothiazol-7-yl)oxymethyl]-1-(4-chloro-2,6-difluorophenyl)piperidine-3,4-diol] the MIC was ≤ 3.13 µg/mL.
For O[C@@H]1CN(c2c(F)cc(Cl)cc2F)CC[C@@]1(O)COc1ccc(Br)c2ccoc12 [Example 23], the MIC was ≤ 3.13 µg/mL.
For Cn1c(=O)cnc2c(OC[C@]3(O)CCN(c4c(F)cc(Cl)cc4F)C[C@H]3O)cccc21 [Example 53, 1-methyl-5-[[(3R,4R)-1-(4-chloro-2,6-difluorophenyl)-3,4-dihydroxypiperidin-4-yl]methoxy]quinoxalin-2-one], the MIC was ≤ 3.13 µg/mL.
For O=C1CCc2c(OC[C@]3(O)CCN(c4c(F)cc(Cl)cc4F)C[C@H]3O)cccc21 [Example 17], the MIC was ≤ 3.13 µg/mL.
With O=C1COCc2c(cccc2OC[C@]2(O)CCN(c3c(F)cc(Cl)cc3F)C[C@H]2O)N1 [Example 65] the MIC was ≤ 3.13 µg/mL.
For OCc1cc(Cl)ccc1OC[C@]1(O)CCN(c2c(F)cc(Cl)cc2F)C[C@H]1O [Example 98, (3R,4R)-1-(4-chloro-2,6-difluorophenyl)-4-[[4-chloro-2-(hydroxymethyl)phenoxy]methyl]piperidine-3,4-diol], the MIC was ≤ 3.13 µg/mL.
In the case of O[C@@H]1CN(c2c(F)cc(Cl)cc2F)CC[C@@]1(O)COc1ccc(Cl)c2cccnc12 [Example 6, (3R,4R)-1-(4-chloro-2,6-difluorophenyl)-4-[(5-chloroquinolin-8-yl)oxymethyl]piperidine-3,4-diol], the MIC is reported as ≤ 3.13 µg/mL.
For O[C@@H]1CN(c2ccc(Cl)cc2F)CC[C@@]1(O)COc1ccc(Cl)c2[nH]ncc12 [Example 47], the MIC was ≤ 3.13 µg/mL.
With O=C1Nc2cccc(OC[C@]3(O)CCN(c4c(F)cc(Cl)cc4F)C[C@H]3O)c2CO1 [Example 141] the MIC was ≤ 3.13 µg/mL.
In the case of Cc1c(OC[C@]2(O)CCN(c3c(F)cc(Cl)cc3F)C[C@H]2O)ccc(Cl)c1NC=O [Example 105], the MIC is reported as ≤ 3.13 µg/mL.
Cl.O[C@@H]1CN(c2c(F)cc(Cl)cc2F)CC[C@@]1(O)COc1ccc(F)c2c1CCCN2 [Example 44, (3R,4R)-1-(4-chloro-2,6-difluorophenyl)-4-[(8-fluoro-1,2,3,4-tetrahydroquinolin-5-yl)oxymethyl]piperidine-3,4-diol hydrochloride] was tested, and the MIC was ≤ 3.13 µg/mL.
For O=C1Cc2c(OC[C@]3(O)CCN(c4c(F)cc(Cl)cc4F)C[C@H]3O)ccc(Cl)c2N1 [Example 95], the MIC was ≤ 3.13 µg/mL.
CC(C)(C)N1Cc2c(OC[C@]3(O)CCN(c4c(F)cc(Cl)cc4F)C[C@H]3O)cccc2C1=O [Example 9] was tested, and the MIC was ≤ 3.13 µg/mL.
With O=C1CCCc2c(OC[C@]3(O)CCN(c4c(F)cc(Cl)cc4F)C[C@H]3O)ccc(Cl)c2N1 [Example 84] the MIC was ≤ 3.13 µg/mL.
In the case of COC(=O)c1cc(Cl)ccc1OC[C@]1(O)CCN(c2c(F)cc(Cl)cc2F)C[C@H]1O [Example 92], the MIC is reported as ≤ 3.13 µg/mL.
For O=C1NCc2c(OC[C@]3(O)CCN(c4ccc(Br)cc4F)C[C@H]3O)ccc(F)c2N1 [Example 131], the MIC was ≤ 3.13 µg/mL.
O=c1[nH]c2c(F)ccc(OC[C@]3(O)CCN(c4ccc(Br)cc4F)C[C@H]3O)c2s1 [Example 140] was tested, and the MIC was ≤ 3.13 µg/mL.
For CNC(=O)c1cc(Cl)ccc1OC[C@]1(O)CCN(c2c(F)cc(Cl)cc2F)C[C@H]1O [Example 101], the MIC was ≤ 3.13 µg/mL.
Cc1noc2cccc(OC[C@]3(O)CCN(c4c(F)cc(Cl)cc4F)C[C@H]3O)c12 [Example 32] was tested, and the MIC was ≤ 3.13 µg/mL.
With O=C1CCc2c(OC[C@]3(O)CCN(c4c(F)cc(Cl)cc4F)C[C@H]3O)ccc(Cl)c21 [Example 90, 7-chloro-4-[[(3R,4R)-1-(4-chloro-2,6-difluorophenyl)-3,4-dihydroxypiperidin-4-yl]methoxy]-2,3-dihydroinden-1-one] the MIC was ≤ 3.13 µg/mL.
In the case of O=c1cnc2c(OC[C@]3(O)CCN(c4ccc(Br)cc4F)C[C@H]3O)cccc2[nH]1 [Example 50], the MIC is reported as ≤ 3.13 µg/mL.
For OC1(COc2cccc3cnccc23)CCN(c2ccc(Cl)cc2F)CC1 [Example 1, 1-(4-chloro-2-fluorophenyl)-4-(isoquinolin-5-yloxymethyl)piperidin-4-ol], the MIC was ≤ 3.13 µg/mL.
O=C1CCCc2c(OCC3(O)CCN(c4c(F)cc(Cl)cc4F)CC3)ccc(Cl)c2N1 [Example 79] was tested, and the MIC was ≤ 3.13 µg/mL.
For O[C@@H]1CN(c2c(F)cc(Cl)cc2F)CC[C@@]1(O)COc1ccc(Cl)c2[nH]c(=S)ccc12 [Example 108], the MIC was ≤ 3.13 µg/mL.
With NC(=O)Cc1cc(F)ccc1OC[C@]1(O)CCN(c2c(F)cc(Cl)cc2F)C[C@H]1O [Example 117, 2-[5-fluoro-2-[[(3R,4R)-1-(4-chloro-2,6-difluorophenyl)-3,4-dihydroxypiperidin-4-yl]methoxy]phenyl]acetamide] the MIC was ≤ 3.13 µg/mL.
O=c1cnc2cccc(OC[C@]3(O)CCN(c4ccc(Cl)cc4F)C[C@H]3O)c2[nH]1 [Example 51] was tested, and the MIC was ≤ 3.13 µg/mL.
With O=C1Cc2c(OC[C@]3(O)CCN(c4ccc(Br)cc4F)C[C@H]3O)ccc(Cl)c2N1 [Example 120] the MIC was ≤ 3.13 µg/mL.
CN1Cc2c(cccc2OC[C@]2(O)CCN(c3c(F)cc(Cl)cc3F)C[C@H]2O)NC1=O [Example 41] was tested, and the MIC was ≤ 3.13 µg/mL.
For O=c1[nH]c2c(F)ccc(OCC3(O)CCN(c4c(F)cc(Cl)cc4F)CC3)c2s1 [Example 147, 7-[[1-(4-chloro-2,6-difluorophenyl)-4-hydroxypiperidin-4-yl]methoxy]-4-fluoro-3H-1,3-benzothiazol-2-one], the MIC was ≤ 3.13 µg/mL.
In the case of O=C1Nc2c(Cl)ccc(OC[C@]3(O)CCN(c4ccc(Cl)cc4F)C[C@H]3O)c2CO1 [Example 133], the MIC is reported as ≤ 3.13 µg/mL.
For O=C1Nc2cccc(OC[C@]3(O)CCN(c4ccc(Cl)cc4F)C[C@H]3O)c2CS1 [Example 68], the MIC was ≤ 3.13 µg/mL.
For O[C@@H]1CN(c2c(F)cc(Cl)cc2F)CC[C@@]1(O)COc1ccc(F)c2nc(Cl)sc12 [Example 135], the MIC was ≤ 3.13 µg/mL.
In the case of O=C1COc2c(OC[C@]3(O)CCN(c4c(F)cc(Cl)cc4F)C[C@H]3O)ccc(Cl)c2N1 [Example 111], the MIC is reported as ≤ 3.13 µg/mL.
For Cn1c(=O)[nH]c2cccc(OC[C@]3(O)CCN(c4c(F)cc(Cl)cc4F)C[C@H]3O)c21 [Example 11], the MIC was ≤ 3.13 µg/mL.
With O=C1CSCc2c(cccc2OC[C@]2(O)CCN(c3c(F)cc(Cl)cc3F)C[C@H]2O)N1 [Example 66] the MIC was ≤ 3.13 µg/mL.

Reference: patent publication US10851079B2, “Piperidine derivative” (OTSUKA PHARMACEUTICAL CO., LTD., priority 2016, dated 2020)
